Laboratory results published in patent US8450317B2, “CXCR3 receptor antagonists” (Boehringer Ingelheim International GmbH, priority 2009, dated 2013).

Target: CXCR3 (Macaca fascicularis, UniProt A0A2K5UV19)
Assay: functional cellular assay measuring calcium flux in CXCR3 transfected cells (block of CXCR3/IP-10 interaction)
Format: cell-based, Cyno
Conditions: IP-10 induced intracellular calcium flux; Cyno-CHO cells stably expressing recombinant CXCR3 and G-alpha-16; IP-10 at EC80; read-out: IC50
How it was run: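 Inhibition of IP-10-induced calcium flux at 10 microM final compound, 15 min room-temperature preincubation, with IP-10 at EC80. Cells: CHO stably transfected with cynomolgus CXCR3 plus G-alpha-16, dye-loaded (Ca-4, 2 mM probenecid, HBSS/HEPES pH 7.4) 1 h at 37° C.; fluorescence ex 480/em 540 nm.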

Chain of CXCR3 (A0A2K5UV19 entry or part of it): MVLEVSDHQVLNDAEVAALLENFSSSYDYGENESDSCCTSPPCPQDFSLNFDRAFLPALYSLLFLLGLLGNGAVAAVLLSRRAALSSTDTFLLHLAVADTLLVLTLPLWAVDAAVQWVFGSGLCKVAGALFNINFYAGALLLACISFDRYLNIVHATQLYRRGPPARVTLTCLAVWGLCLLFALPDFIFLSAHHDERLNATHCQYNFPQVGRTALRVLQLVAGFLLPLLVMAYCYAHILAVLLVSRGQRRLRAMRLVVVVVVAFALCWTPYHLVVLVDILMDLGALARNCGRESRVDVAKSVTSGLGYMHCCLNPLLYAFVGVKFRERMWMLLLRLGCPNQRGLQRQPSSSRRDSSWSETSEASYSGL

| IC50 [nM] | SMILES |
| --- | --- |
| 22 | Cc1cc(C)n(CC(=O)N2CCN(c3ccccc3-c3cnc(N4CCC(F)(F)CC4)nc3)CC2)n1 [1-(4-{2-[2-(4,4-Difluoro-piperidin-1-yl)-pyrimidin-5-yl]-phenyl}-piperazin-1-yl)-2-(3,5-dimethyl-pyrazol-1-yl)-ethanone] |
| 11 | O=C(Cn1ccc2cccnc21)N1CCN(c2ccccc2-c2cnc(N3CCCCC3)nc2)CC1 [1-{4-[2-(2-Piperidin-1-yl-pyrimidin-5-yl)-phenyl]-piperazin-1-yl}-2-pyrrolo[2,3-b]pyridin-1-yl-ethanone] |
| 4 | CSc1ncc(-c2ccccc2N2CCN(C(=O)Cn3ccc4cccnc43)CC2)cn1 [1-{4-[2-(2-Methylsulfanyl-pyrimidin-5-yl)-phenyl]-piperazin-1-yl}-2-pyrrolo[2,3-b]pyridin-1-yl-ethanone] |
| 11 | O=C(Cn1ccc2cccnc21)N1CCC(c2ccccc2-c2cnc(N3CCOCC3)nc2)CC1 [1-{4-[2-(2-Morpholin-4-yl-pyrimidin-5-yl)-phenyl]-piperidin-1-yl}-2-pyrrolo[2,3-b]pyridin-1-yl-ethanone] |
| 111 | Cc1cc(C)n(CC(=O)N2CCN(c3ccccc3-c3cccc(Cl)c3)CC2)n1 [1-[4-(3′-Chloro-biphenyl-2-yl)-piperazin-1-yl]-2-(3,5-dimethyl-pyrazol-1-yl)-ethanone] |
| 9 | O=C(Cn1ccc2cccnc21)N1CCN(c2ccccc2-c2cnc(N3CCCC3)nc2)CC1 [1-{4-[2-(2-Pyrrolidin-1-yl-pyrimidin-5-yl)-phenyl]-piperazin-1-yl}-2-pyrrolo[2,3-b]pyridin-1-yl-ethanone] |
| 40 | Cc1cc(C)n(CC(=O)N2CCN(c3ccccc3-c3cnc(N4CCN(C)CC4)nc3)CC2)n1 [2-(3,5-Dimethyl-pyrazol-1-yl)-1-(4-{2-[2-(4-methyl-piperazin-1-yl)-pyrimidin-5-yl]-phenyl}-piperazin-1-yl)-ethanone] |
| 20 | O=C(Cn1ccc2cccnc21)N1CC=C(c2ccccc2-c2cnc(N3CCOCC3)nc2)CC1 [1-{4-[2-(2-Morpholin-4-yl-pyrimidin-5-yl)-phenyl]-3,6-dihydro-2H-pyridin-1-yl}-2-pyrrolo[2,3-b]pyridin-1-yl-ethanone] |
| 18 | Cc1cc(C)n(CC(=O)N2CCN(c3ccccc3-c3ccc(C#N)nc3)CC2)n1 [5-(2-{4-[2-(3,5-Dimethyl-pyrazol-1-yl)-acetyl]-piperazin-1-yl}-phenyl)-pyridine-2-carbonitrile] |
| 15 | O=C(Cn1ccc2cccnc21)N1CCN(c2ccc(F)cc2-c2cnc(N3CCCC3)nc2)CC1 [1-(4-{4-fluoro-2-[2-(pyrrolidin-1-yl)pyrimidin-5-yl]phenyl}piperazin-1-yl)-2-(1H-pyrrolo[2,3-b]pyridin-1-yl)ethanone] |
| 8 | O=C(Cn1ccc2cccnc21)N1CCN(c2ccc(F)cc2-c2cnc(N3CCC(O)CC3)nc2)CC1 [1-(4-{4-fluoro-2-[2-(4-hydroxypiperidin-1-yl)pyrimidin-5-yl]phenyl}piperazin-1-yl)-2-(1H-pyrrolo[2,3-b]pyridin-1-yl)ethanone] |
| 68 | COc1ccc(C(=O)NCC(=O)N2CCN(c3ccccc3-c3cnc(N4CCOCC4)nc3)CC2)cc1OC [3,4-Dimethoxy-N-(2-{4-[2-(2-morpholin-4-yl-pyrimidin-5-yl)-phenyl]-piperazin-1-yl}-2-oxo-ethyl)-benzamide] |
| 24 | CS(=O)(=O)c1ncc(-c2cc(Cl)ccc2N2CCN(C(=O)Cn3ccc4cccnc43)CC2)cn1 [1-{4-[4-Chloro-2-(2-methanesulfonyl-pyrimidin-5-yl)-phenyl]-piperazin-1-yl}-2-pyrrolo[2,3-b]pyridin-1-yl-ethanone] |
| 9 | COc1cc(NC(=O)c2cc(F)ccc2N2CCN(C(=O)Cn3ccc4cccnc43)[C@H](C)C2)ccn1 [5-fluoro-N-(2-methoxypyridin-4-yl)-2-[(3R)-3-methyl-4-(1H-pyrrolo[2,3-b]pyridin-1-ylacetyl)piperazin-1-yl]benzamide] |
| 11 | CC1CN(c2ccc(C(F)(F)F)cc2-c2cnc(N3CCC(O)CC3)nc2)CCN1C(=O)Cn1cnc2cccnc21 (stereo not drawn) [1-(4-{2-[2-(4-hydroxypiperidin-1-yl)pyrimidin-5-yl]-4-(trifluoromethyl)phenyl}-2-methylpiperazin-1-yl)-2-(3H-imidazo[4,5-b]pyridin-3-yl)ethanone] |
| 245 | CC1CN(c2ccc(F)cc2-c2cnc(S(C)(=O)=O)nc2)CCN1C(=O)CN1Cc2ccccc2C1=O (stereo not drawn) [2-[2-(4-{4-fluoro-2-[2-(methylsulfonyl)pyrimidin-5-yl]phenyl}-2-methylpiperazin-1-yl)-2-oxoethyl]-2,3-dihydro-1H-isoindol-1-one] |
| 14 | O=C(Cn1cnc2cccnc21)N1CCN(c2ccc(F)cc2-c2cnc(N3CCCC3)nc2)CC1 [1-(4-{4-fluoro-2-[2-(pyrrolidin-1-yl)pyrimidin-5-yl]phenyl}piperazin-1-yl)-2-(3H-imidazo[4,5-b]pyridin-3-yl)ethanone] |

| IC50 [nM] | SMILES |
| --- | --- |
| 14 | CC1CN(c2ccc(F)cc2-c2cnc(N3CCC(S(C)(=O)=O)CC3)nc2)CCN1C(=O)CN1CCCCC1=O (stereo not drawn) [1-{2-[4-(4-fluoro-2-{2-[4-(methylsulfonyl)piperidin-1-yl]pyrimidin-5-yl}phenyl)-2-methylpiperazin-1-yl]-2-oxoethyl}piperidin-2-one] |
| 27 | O=C(CNc1ccncc1)N1CCN(c2ccccc2-c2cnc(N3CCOCC3)nc2)CC1 [1-{4-[2-(2-Morpholin-4-yl-pyrimidin-5-yl)-phenyl]-piperazin-1-yl}-2-(pyridin-4-ylamino)-ethanone] |
| 9 | Cc1cc(C)n(CC(=O)N2CCN(c3ccccc3-c3cnc(N4CCOCC4)nc3)CC2)n1 [2-(3,5-Dimethyl-pyrazol-1-yl)-1-{4-[2-(2-morpholin-4-yl-pyrimidin-5-yl)-phenyl]-piperazin-1-yl}-ethanone] |
| 19 | CC(C)C(=O)N(C)CC(=O)N1CCN(c2ccc(F)cc2C(=O)Nc2nc3c(s2)CN(C)CC3)C[C@H]1C [5-fluoro-2-{(3R)-3-methyl-4-[N-methyl-N-(2-methylpropanoyl)glycyl]piperazin-1-yl}-N-(5-methyl-4,5,6,7-tetrahydro[1,3]thiazolo[5,4-c]pyridin-2-yl)benzamide] |
| 9 | Cc1cc(C)n(CC(=O)N2CCN(c3ccc(F)cc3-c3cnc(N4CCC(O)CC4)nc3)CC2)n1 [2-(3,5-dimethyl-1H-pyrazol-1-yl)-1-(4-{4-fluoro-2-[2-(4-hydroxypiperidin-1-yl)pyrimidin-5-yl]phenyl}piperazin-1-yl)ethanone] |
| 12 | COC[C@@H]1CCCN1c1ncc(-c2ccccc2N2CCN(C(=O)Cn3nc(C)cc3C)CC2)cn1 [2-(3,5-Dimethyl-pyrazol-1-yl)-1-(4-{2-[2-((S)-2-methoxymethyl-pyrrolidin-1-yl)-pyrimidin-5-yl]-phenyl}-piperazin-1-yl)-ethanone] |
| 12 | Cc1cc(C)n(CC(=O)N2CCN(c3ccc(F)cc3C(=O)Nc3nc4c(s3)CN(C)CC4)C[C@@H]2C)n1 [2-{(3S)-4-[(3,5-dimethyl-1H-pyrazol-1-yl)acetyl]-3-methylpiperazin-1-yl}-5-fluoro-N-(5-methyl-4,5,6,7-tetrahydro[1,3]thiazolo[5,4-c]pyridin-2-yl)benzamide] |
| 11 | CN1CCN(c2ncc(-c3ccccc3N3CCN(C(=O)Cn4ccc5cccnc54)CC3)cn2)CC1 [1-(4-{2-[2-(4-Methyl-piperazin-1-yl)-pyrimidin-5-yl]-phenyl}-piperazin-1-yl)-2-pyrrolo[2,3-b]pyridin-1-yl-ethanone] |
| 9 | COc1ccc(N2CCN(C(=O)Cn3ccc4cccnc43)CC2)c(-c2cnc(N3CCOCC3)nc2)c1 [1-{4-[4-Methoxy-2-(2-morpholin-4-yl-pyrimidin-5-yl)-phenyl]-piperazin-1-yl}-2-pyrrolo[2,3-b]pyridin-1-yl-ethanone] |
| 16 | COc1ncc(-c2ccccc2N2CCN(C(=O)Cn3ccc4ccnc(Cl)c43)CC2)cn1 [2-(7-Chloro-pyrrolo[2,3-c]pyridin-1-yl)-1-{4-[2-(2-methoxy-pyrimidin-5-yl)-phenyl]-piperazin-1-yl}-ethanone] |
| 56 | Cc1cc(C)n(CC(=O)N2CCN(c3ccc(C(F)(F)F)cc3-c3cnc(S(C)(=O)=O)nc3)CC2C)n1 (stereo not drawn) [2-(3,5-dimethyl-1H-pyrazol-1-yl)-1-(2-methyl-4-{2-[2-(methylsulfonyl)pyrimidin-5-yl]-4-(trifluoromethyl)phenyl}piperazin-1-yl)ethanone] |
| 30 | O=C(CN1CCCCC1=O)N1CCN(c2ccc(F)cc2-c2cnc(N3CCOCC3)nc2)CC1 [1-[2-(4-{4-fluoro-2-[2-(morpholin-4-yl)pyrimidin-5-yl]phenyl}piperazin-1-yl)-2-oxoethyl]piperidin-2-one] |
| 9 | O=C(CN1Cc2ccccc2C1=O)N1CCN(c2ccc(F)cc2-c2cnc(N3CCC(O)CC3)nc2)CC1 [2-[2-(4-{4-fluoro-2-[2-(4-hydroxypiperidin-1-yl)pyrimidin-5-yl]phenyl}piperazin-1-yl)-2-oxoethyl]-2,3-dihydro-1H-isoindol-1-one] |
| 11 | Cc1cc(C)n(CC(=O)N2CCN(c3ccc(F)cc3-c3cnc(N4CCC(S(C)(=O)=O)CC4)nc3)CC2)n1 [2-(3,5-dimethyl-1H-pyrazol-1-yl)-1-[4-(4-fluoro-2-{2-[4-(methylsulfonyl)piperidin-1-yl]pyrimidin-5-yl}phenyl)piperazin-1-yl]ethanone] |
| 8 | COc1ncc(-c2cc(C(F)(F)F)ccc2N2CCN(C(=O)Cn3ccc4cccnc43)CC2)cn1 [1-{4-[2-(2-Methoxy-pyrimidin-5-yl)-4-trifluoromethyl-phenyl]-piperazin-1-yl}-2-pyrrolo[2,3-b]pyridin-1-yl-ethanone] |
| 7 | CC1CN(c2ccc(C(F)(F)F)cc2-c2cnc(N3CCC(O)CC3)nc2)CCN1C(=O)Cn1ccc2ccncc21 (stereo not drawn) [1-(4-{2-[2-(4-hydroxypiperidin-1-yl)pyrimidin-5-yl]-4-(trifluoromethyl)phenyl}-2-methylpiperazin-1-yl)-2-(1H-pyrrolo[2,3-c]pyridin-1-yl)ethanone] |
